Read-outs that look alike come from different tables or passages of the source.
Target: T1, GST-Bcl-B (Homo sapiens, UniProt Q9HD36)
T1 sequence (Q9HD36 1-182 limits assumed): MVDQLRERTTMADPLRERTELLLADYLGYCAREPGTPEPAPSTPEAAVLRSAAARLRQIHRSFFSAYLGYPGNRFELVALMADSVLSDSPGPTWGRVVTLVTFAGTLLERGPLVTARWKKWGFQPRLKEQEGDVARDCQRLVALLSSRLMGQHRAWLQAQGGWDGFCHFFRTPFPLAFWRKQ
Assay: Bcl-B/FITC-TR3-r8 fluorescence polarization competition (displacement) assay, HTS and dose-response

[1] = Table 8, NCI Structural library, Binding Assay, FP, Concentration 0.02 uM
[2] = read-out: Result Value (Result Type % Inhibition), BCL-b/TR3
[3] = Table 7, NCI Mechanistic library, Binding Assay, FP, Concentration 0.02 uM
[4] = read-out: Result Value (Result Type % Inhibition), BCL-b/TR3, Table 7, NCI Mechanistic library, Binding Assay, FP, Concentration 0.02 uM
[5] = read-out: Result Value (Result Type % Inhibition), BCL-b/TR3, Table 8, NCI Structural library, Binding Assay, FP, Concentration 0.02 uM

Compound	F Ratio [1]	Is Hit [1]	inhibition at 0.02 µM [2]	F Ratio [3]	Is Hit [3]	inhibition at 0.02 µM [4]	Result Value (Result Type % Inhibition), BCL-b/TR3 [3]	inhibition at 0.02 µM [5]
COc1ccc2nc3cc(Cl)ccc3c(Nc3ccc(O)c(CN4CCN(C)CC4)c3)c2c1.Cl [Compound 130813]	0.07696	Yes	133%	–	–	–	–	–
Oc1cc(O)c2c(c1)OC(c1ccc(O)c(O)c1)C(O)C2c1c(O)cc(O)c2c1OC(c1ccc(O)c(O)c1)C(O)C2 (stereo not shown) [Compound 143099]	0.1606	Yes	84.6%	–	–	–	–	–
Oc1cc(O)c2c(c1)OC(c1ccc(O)c(O)c1)C(OC1(c3cc(O)c(O)c(O)c3)Oc3cc(O)cc(O)c3C(O)C1O)C2 (stereo not shown) [Compound 143101]	0.1869	Yes	82.8%	–	–	–	–	–
COC1/C2=C(\O)C3(C)Oc4c5c(O)c6c(O)c(c(CN(C)C)c(O)c6c4C3=O)NC(=O)/C(C)=C\C=C/CC(O)C(C)C(O5)C(C)C(OC2=O)C1C (stereo not shown) [Compound 145612]	0.9609	Yes	54%	–	–	–	–	–
O=S(=O)(O)c1cc(/N=N/c2cccc3ccccc23)c(O)c2ncccc12 [Compound 148354]	0.07045	Yes	102%	–	–	–	–	–
CS(=O)(=O)Nc1ccc(Nc2c3ccccc3nc3ccccc23)cc1 [Compound 156305]	0.1208	Yes	58.6%	–	–	–	–	–
CCc1c(O)c2c(c(O)c1C(C)=O)C(=O)c1c(cc(O)c(C(=O)O)c1C(=O)O)C2=O [Compound 170005]	0.1552	Yes	123%	–	–	–	–	–
N=C(N)NCCCS(=O)(=O)Nc1ccc(Nc2c3ccccc3nc3cc([N+](=O)[O-])ccc23)cc1 [Compound 177365]	–	–	51.9%	0.439	Yes	–	–	–
CN1CC=C(Nc2ccc(C(=O)Nc3ccc(Nc4ccncc4)cc3)c([N+](=O)[O-])c2)c2cc([N+](=O)[O-])ccc21 [Compound 218439]	–	–	–	0.07485	Yes	106%	–	–
c1ccc2c(NCCCCCCCCNc3c4ccccc4nc4ccccc34)c3ccccc3nc2c1 [Compound 219734]	–	–	–	0.2008	Yes	–	53.437%	–
NC(=O)OCC1=C(COC(N)=O)C(=O)c2c(O)ccc(O)c2C1=O [Compound 224124]	–	–	145%	1.1456	Yes	–	–	–
O=[N+]([O-])c1ccc(S(=O)(=O)Cc2ccccc2)c2nonc12 [Compound 228148]	1.1364	Yes	73.4%	–	–	–	–	–
COc1cccc2c1C(=N)c1c(O)c3c(c(O)c1C2=O)C[C@@](O)(C(C)=O)C[C@@H]3OC1CC(N)C(O)C(C)O1 (stereo partly shown) [Compound 254681]	0.5232	Yes	138%	–	–	–	–	–
COc1ccc2c(NCCCCCCNc3c4ccccc4nc4cc(OC)ccc34)c3ccccc3nc2c1 [Compound 260610]	–	–	53.3%	0.269	Yes	–	–	–
CC[n+]1c(-c2ccccc2)c2cc(N)ccc2c2ccc(N)cc21 [Compound 268986]	–	–	–	0.3849	Yes	149%	–	–
Cc1nn(-c2ccc(S(=O)(=O)O)cc2)c(O)c1/N=N/c1ccc(-c2ccc(/N=N/c3ccc4c(S(=O)(=O)O)cc(S(=O)(=O)O)c(N)c4c3O)c(O)c2)cc1O [Compound 306711]	0.08966	Yes	154%	–	–	–	–	–
CN(C)CCN1C(=O)c2cccc3cc(N)cc(c23)C1=O [Compound 308847]	–	–	–	0.6345	Yes	87.6%	–	–
CC(=O)O.CCN(CC)CC[n+]1ccc2c(C)c3[nH]c4ccc(O)cc4c3c(C)c2c1 [Compound 311152]	0.7711	Yes	128%	–	–	–	–	–
CC(=O)O.Cc1c2cc[n+](CCN3CCCCC3)cc2c(C)c2c1[nH]c1ccc(O)cc12 [Compound 311153]	0.3973	Yes	–	0.275	Yes	120%	–	128%
Nc1ccc2c(c1)CN1C(=O)c3ccccc3C1=N2 [Compound 320846]	–	–	–	1.4904	Yes	60.7%	–	–
CN1CCN(c2ccc3nc(-c4ccc5[nH]c(-c6ccc(O)cc6)nc5c4)[nH]c3c2)CC1 [Compound 322921]	–	–	–	–	–	–	–	71.6%
O=C1C(Cl)=C(Sc2nnc3c4ccccc4c4ccccc4c3n2)C(=O)c2ccccc21 [Compound 327705]	0.2306	Yes	–	–	–	–	–	56.3%
CN(C)CCCNc1cc(O)c2c(c1O)C(=O)c1ccccc1C2=O [Compound 339585]	0.1416	Yes	110%	–	–	–	–	–
Nc1nc(Sc2ccc([N+](=O)[O-])c3nonc23)c2nc[nH]c2n1 [Compound 348401]	1.4788	Yes	68.6%	–	–	–	–	–
CCOc1ccc2nc3cc(/N=N/c4ccc(N)nc4N)ccc3c(N)c2c1.Cl [Compound 354961]	1.1279	Yes	150%	–	–	–	–	–
N=C(N)c1ccc(/N=N/c2c(O)ccc3c2[nH]c2ccccc23)cc1 [Compound 357777]	0.06989	Yes	120%	–	–	–	–	–
CCN(CC)Cc1cc(/N=N/c2c(O)ccc3c(/N=N/c4ccc(O)c(CN(CC)CC)c4)c(O)ccc23)ccc1O [Compound 359463]	–	–	94.9%	0.08773	Yes	–	–	–
O=C1c2cccc(NCCCNCCO)c2C(=O)c2cccc(NCCCNCCO)c21 [Compound 363998]	–	–	115%	0.2213	Yes	–	–	–
Ic1ccc2c(c1)N(c1ccccc1)c1cc(Nc3ccc4nc5ccc(I)cc5[n+](-c5ccccc5)c4c3)ccc1N2 [Compound 402959]	0.6261	Yes	61.8%	–	–	–	–	–

Reference: patent publication US20090118135A1, “METHODS AND COMPOUNDS FOR REGULATING APOPTOSIS” (The Burnham Institute, priority 2007, published 2009)
